# Experiments:
# [1] = Fluorescence emission maximum and fluorescence quantum efficiency of the dyes; type: physicochemical
# Experimental: Representative novel dyes of this invention are listed in Table I below in reference to the illustrated structure above. Of these, Compound 4 is preferred for use in biological studies and assays because it can be used at a pH of 7 or less. In Table I, the "fluorescence quantum efficiency" was determined by procedures described by Birks in Standardization in Spectrophotometry and Luminescence Measurements, Mielenz et al (Eds.), Nat. Bureau of Standards Special Publication 466 (1977).
# [2] = tested on: carboxyl esterase, Type I; test: Determination of an esterase enzyme by hydrolysis of the hydrolyzable substrate (fluorometer); type: biochemical; conditions: final enzyme activity 48 I.U., HEPES pH 7.8, excitation 540 nm, emission 610 nm
# Experimental: The hydrolyzable compound used is represented by the structure: [drawing 11]
# A test solution was prepared from the following: the hydrolyzable substrate (50 μl of a solution of 0.1 mg/0.5 ml of methanol), 0.05 molar HEPES buffer (3 μl, pH 7.8) and the esterase enzyme carboxyl esterase, Type I (50 μl). A Control solution was similarly prepared by omitting the enzyme. Fluorescence of the released fluorescent dye was measured with a commercially available fluorometer when the enzyme was first added to the test solution and at various times thereafter (excitation at 540 nm and emission at 610 nm). The Control solution was similarly evaluated at the indicated times.
Structure (SMILES),Emission (λmax) ([1]; in methanol) [nm],Fluorescence Quantum Efficiency ([1]; in methanol),Emission (λmax) ([1]; in 5:1 water/methanol) [nm],Fluorescence Quantum Efficiency ([1]; solvent in 5:1 water/methanol),other results
Cc1cc(O)cc2c1cc1c3c(cccc32)C(=O)C=C1 [Compound 1],542,0.4,–,–,–
Cc1cc(O)cc2c1cc1c3c(cccc32)C(=O)C=C1 [Compound 2],–,–,635,0.18,–
Cc1cc(O)c(Cl)c2c1cc1c3c(cccc32)C(=O)C=C1 [Compound 3],629,0.55,–,–,–
Cc1cc(O)c(Cl)c2c1cc1c3c(cccc32)C(=O)C=C1 [Compound 4],–,–,628,0.42,–
Cc1cc(OC(=O)N(C)c2ccccc2)c(Cl)c2c1cc1c3c(cccc32)C(=O)C=C1 [Compound 5],–,–,550,0.01,–
Cc1cc(N2CCCC2)cc2c1cc1c3c(cccc32)C(=O)C=C1 [Compound 6],655,0.52,–,–,–
CCCCOC(=O)c1cc(O)cc2c1cc1c3c(cccc32)C(=O)C=C1 [Compound 7],525,0.4,–,–,–
CCCCOC(=O)c1cc(O)cc2c1cc1c3c(cccc32)C(=O)C=C1 [Compound 8],–,–,630,0.3,–
CCCCOC(=O)c1cc(O)c(Cl)c2c1cc1c3c(cccc32)C(=O)C=C1 [Compound 9],–,–,625,0.56,–
CC(=O)Oc1cc(C)c2cc3c4c(cccc4c2c1Cl)C(=O)C=C3 [Example 6],–,–,–,–,Δ Relative Fluorescence (Minutes) 0 ([2]; 0 minutes): 8.1; Δ Relative Fluorescence (Minutes) 1 ([2]; 1 minute): 31.5; Δ Relative Fluorescence (Minutes) 2 ([2]; 2 minutes): 32.1; Δ Relative Fluorescence (Minutes) 5 ([2]; 5 minutes): 33.3

# Source: patent US4812393A, “Fluorescent dyes and biological and analytical uses thereof” (priority 1986, dated 1989)
